Patent US10792257B2, “Pharmaceutical compositions comprising safinamide” (Zambon S.P.A., priority 2016, dated 2020)

Columns and labels:
Solubility in saliva = assay type: physicochemical
[1] = Organoleptic characteristics of the active ingredient as noted by the inventors; settings: for irritation of the mucosae: unmasked active ingredient, oropharynx

Molecule	solubility in saliva (Solubility in saliva)	irritant effect in the oral cavity ([1]; attempts to modify the pH of the pharmaceutical preparation)	irritation of the mucosae [1]
C[C@H](NCc1ccc(OCc2cccc(F)c2)cc1)C(N)=O [safinamide methanesulfonate, Safinamide methanesulfonate]	fairly soluble in saliva	did not lead to a reduction of the irritant effect	pronounced tendency to irritate the mucosae of the first section of the oropharynx
(2 S)-2-[[4-[(3-fluorophenypmethoxy]phenyl]methyl amino]propanamide [safinamide]			pronounced tendency to irritate the mucosae of the first section of the oropharynx
